In patent US20220128542A1, “TREATMENT EFFICIENCY EVALUATION” (TX MEDIC AB, priority 2019, published 2022):

Tested on: brain of rats subjected to severe traumatic brain injury (sTBI)
Experiment: Ingenuity pathway analysis of differentially regulated genes after sTBI (canonical pathways, diseases and molecular functions; Example 4)
Design: species or system rat
Conditions: 2 days after TBI
Method: Pathway analysis of the differentially regulated genes was carried out using the Ingenuity pathway analysis package. The analysis was performed with special reference to pathways and molecular processes and diseases associated with neurodegenerative disease, including dementia, Alzheimer's disease, ALS, TBI and stroke, and with scarring and fibrosis, including glaucoma and normal pressure hydrocephalus (NPH) after subarachnoid haemorrhage.

[1] = TBI + 5 mg/kg LMW-DS relative to control

sodium salt of dextran sulfate [LMW-DS]
Apoptosis (disease/function), z score (TBI + 5 mg/kg LMW-DS): 0.601
Behavior (disease/function), z score (TBI + 5 mg/kg LMW-DS): −2.009
Carcinoma (disease/function), z score (TBI + 5 mg/kg LMW-DS): −2.071
Cell death (disease/function), z score (TBI + 5 mg/kg LMW-DS): 0.051
Cell death of antigen presenting cells (disease/function), z score (TBI + 5 mg/kg LMW-DS): −0.62
Cell death of immune cells (disease/function), z score (TBI + 5 mg/kg LMW-DS): −1
Cell death of tumor cell lines (disease/function), z score (TBI + 5 mg/kg LMW-DS): −1.947
Cell movement (disease/function), z score (TBI + 5 mg/kg LMW-DS): −3.723
Cell movement of tumor cell lines (disease/function), z score (TBI + 5 mg/kg LMW-DS): −2.078
Cell proliferation of leukocyte cell lines (disease/function), z score (TBI + 5 mg/kg LMW-DS): −2.754
Cellular homeostasis (disease/function), z score (TBI + 5 mg/kg LMW-DS): −3.19
Chemotaxis (disease/function), z score (TBI + 5 mg/kg LMW-DS): −3.642
Concentration of prostaglandin (disease/function), z score (TBI + 5 mg/kg LMW-DS): −0.911
Development of vasculature (disease/function), z score (TBI + 5 mg/kg LMW-DS): −1.534
Digestive organ tumor (disease/function), z score (TBI + 5 mg/kg LMW-DS): −1.149
Digestive system cancer (disease/function), z score (TBI + 5 mg/kg LMW-DS): −2.221
Edema (disease/function), z score (TBI + 5 mg/kg LMW-DS): 3.386
Epithelial neoplasm (disease/function), z score (TBI + 5 mg/kg LMW-DS): −1.393
Extracranial solid tumor (disease/function), z score (TBI + 5 mg/kg LMW-DS): −0.992
Feeding (disease/function), z score (TBI + 5 mg/kg LMW-DS): −0.895
Growth of tumor (disease/function), z score (TBI + 5 mg/kg LMW-DS): −1.233
Hematologic cancer (disease/function), z score (TBI + 5 mg/kg LMW-DS): −1.067
Incidence of tumor (disease/function), z score (TBI + 5 mg/kg LMW-DS): −0.731
Leukocyte migration (disease/function), z score (TBI + 5 mg/kg LMW-DS): −2.163
Leukopoiesis (disease/function), z score (TBI + 5 mg/kg LMW-DS): −3.549
Locomotion (disease/function), z score (TBI + 5 mg/kg LMW-DS): −0.039
Lymphocyte homeostasis (disease/function), z score (TBI + 5 mg/kg LMW-DS): −2.94
Lymphocytic cancer (disease/function), z score (TBI + 5 mg/kg LMW-DS): −0.48
Lymphocytic neoplasm (disease/function), z score (TBI + 5 mg/kg LMW-DS): −0.48
Lymphopoiesis (disease/function), z score (TBI + 5 mg/kg LMW-DS): −3.105
Lymphoproliferative disorder (disease/function), z score (TBI + 5 mg/kg LMW-DS): −0.48
Malignant solid tumor (disease/function), z score (TBI + 5 mg/kg LMW-DS): −1.492
Metabolism of hormone (disease/function), z score (TBI + 5 mg/kg LMW-DS): −1.632
Migration of cells (disease/function), z score (TBI + 5 mg/kg LMW-DS): −3.087
NF-κB Signaling canonical pathway, effect (TBI + 5 mg/kg LMW-DS): Inhibited
Necrosis (disease/function), z score (TBI + 5 mg/kg LMW-DS): −1.503
Neoplasia of leukocytes (disease/function), z score (TBI + 5 mg/kg LMW-DS): −0.48
Non-melanoma solid tumor (disease/function), z score (TBI + 5 mg/kg LMW-DS): −1.249
Osteoarthritis Pathway canonical pathway, effect (TBI + 5 mg/kg LMW-DS): Inhibited
Proliferation of hematopoietic progenitor cells (disease/function), z score (TBI + 5 mg/kg LMW-DS): −2.951
Quantity of cells (disease/function), z score (TBI + 5 mg/kg LMW-DS): −3.092
Quantity of epithelial tissue (disease/function), z score (TBI + 5 mg/kg LMW-DS): −0.028
Quantity of neuroglia (disease/function), z score (TBI + 5 mg/kg LMW-DS): −1.446
Resorption of bone (disease/function), z score (TBI + 5 mg/kg LMW-DS): −0.478
Role of NFAT in Cardiac Hypertrophy canonical pathway, effect (TBI + 5 mg/kg LMW-DS): Inhibited
Secretion of molecule (disease/function), z score (TBI + 5 mg/kg LMW-DS): 1.634
Size of body (disease/function), z score (TBI + 5 mg/kg LMW-DS): −4.771
Synthesis of hormone (disease/function), z score (TBI + 5 mg/kg LMW-DS): −1.632
Transport of molecule (disease/function), z score (TBI + 5 mg/kg LMW-DS): 0.248
Vasculogenesis (disease/function), z score (TBI + 5 mg/kg LMW-DS): −2.274
Adrenomedullin Signaling pathway canonical pathway, z score [1]: −2.236
NF-κB Signaling canonical pathway, z score [1]: −2
Osteoarthritis Pathway canonical pathway, z score [1]: −2.646
Role of NFAT in Cardiac Hypertrophy canonical pathway, z score [1]: −1.633
Apoptosis (disease/function), z score (TBI + 15 mg/kg LMW-DS): −0.502
Apoptosis of tumor cell lines (disease/function), z score (TBI + 15 mg/kg LMW-DS): 0.09
Behavior (disease/function), z score (TBI + 15 mg/kg LMW-DS): −0.139
Cell death (disease/function), z score (TBI + 15 mg/kg LMW-DS): −0.141
Necrosis (disease/function), z score (TBI + 15 mg/kg LMW-DS): −0.477
Quantity of blood cells (disease/function), z score (TBI + 15 mg/kg LMW-DS): −0.34
Quantity of cells (disease/function), z score (TBI + 15 mg/kg LMW-DS): −0.797
Quantity of lymphocytes (disease/function), z score (TBI + 15 mg/kg LMW-DS): −0.943
Transcription of RNA (disease/function), z score (TBI + 15 mg/kg LMW-DS): −2.488
Effect on diseases or functions annotation: Abdominal cancer (TBI + 1 mg/kg LMW-DS): Inhibited
Effect on diseases or functions annotation: Abdominal carcinoma (TBI + 1 mg/kg LMW-DS): Inhibited
Effect on diseases or functions annotation: Abdominal neoplasm (TBI + 1 mg/kg LMW-DS): Inhibited
Effect on diseases or functions annotation: Activation of blood cells (TBI + 1 mg/kg LMW-DS): Activated
Effect on diseases or functions annotation: Activation of cells (TBI + 1 mg/kg LMW-DS): Activated
Effect on diseases or functions annotation: Activation of leukocytes (TBI + 1 mg/kg LMW-DS): Activated
Effect on diseases or functions annotation: Activation of lymphocytes (TBI + 1 mg/kg LMW-DS): Inhibited
Effect on diseases or functions annotation: Adhesion of tumor cell lines (TBI + 1 mg/kg LMW-DS): Activated
Effect on diseases or functions annotation: Apoptosis (TBI + 1 mg/kg LMW-DS): Inhibited
